Experimental data from patent US20250108119A1, “NOVEL STEROID PAYLOADS, STEROID LINKERS, ADCs CONTAINING AND USE THEREOF” (IMMUNEXT, INC., priority 2021, published 2025).

What was measured:
human PBMC = test: Cytokine production (IL-1β, IL-6) at 24 hr by human PBMC incubated with 1 ng/mL LPS; format: cell-based; settings: free steroid payloads, serial dilutions, 1 ng/mL LPS, 24 hr
Protocol: (§1) FIG. 51: INX-SM-3, INX-SM-4, and INX-SM-1 inhibit IL-1β (left) and IL-6 (right) production. Cytokine levels were measured at 24 hr for human PBMCS incubated with 1 ng/mL LPS and serial dilutions (1000-1 nM) of steroid payloads, with the no treatment control plotted on the log-scale x-axis at <1 nM; n=1 donor, standard deviation plotted from technical duplicates.
as §1, with “52: INX-SM-1,” for “51:”, “INX-SM-4” for “INX-SM-4,”, “INX-SM-6” for “INX-SM-1”, “IL-1β” for “IL-1β (left) and IL-6 (right)”, “levels” for “levels were”, “ng/ml” for “ng/mL”
(§2) FIG. 53: INX-SM-9, INX-SM-31 and INX-SM-35 inhibit IL-1β (top) and IL-6 (bottom) production. Cytokine levels measured at 24 hr for human PBMCS incubated with 1 ng/mL LPS and serial dilutions (1000-0.2 nM) of steroid payloads, with the no treatment control plotted on the log-scale x-axis at <0.2 nM; n=2 donors-representative donor shown. Standard deviation plotted from technical duplicates.
as §2, with “54: INX-SM-32 inhibits” for “53: INX-SM-9, INX-SM-31 and INX-SM-35 inhibit”, “(500-1” for “(1000-0.2”, “<1” for “<0.2”, “n=2. Representative” for “n=2 donors-representative”
Cytokine levels measured at 24 hr for human PBMCS incubated with 1 ng/ml LPS and serial dilutions (1000-0.5 nM) of steroid payloads, with the no treatment control plotted on the log-scale x-axis at <0.5 nM; n=1 donor, standard deviation plotted from technical duplicates.
FIG. 56: INX-SM-2 and INX-SM-7 show inhibition in IL-1β. Average Cytokine levels measured at 24 hr for human PBMCS incubated with 1 ng/ml LPS and serial dilutions (1000-0.16 nM) of steroid payloads, with the no treatment control plotted on the log-scale x-axis at <0.16 nM; n=1, standard deviation plotted from technical duplicates. […]
Average cytokine levels measured at 24 hr for human PBMC incubated with 1 ng/ml LPS and serial dilutions (100-0.032 nM) of glucocorticoid payloads; n=1, mean of technical duplicates.
Average cytokine levels measured at 24 hr for human PBMC incubated with 1 ng/mL LPS and serial dilutions (1000-0.32 nM) of glucocorticoid payloads; n=1, mean of technical duplicates.
Cytokine levels measured at 24 hr for human PBMC incubated with 1 ng/mL LPS and serial dilutions (1000-0.5 nM) of steroid payloads, with the no treatment control plotted on the log-scale x-axis at <0.5 nM; n=1 donor, mean of technical duplicates plotted.
Average cytokine levels for A. hull-1β B. huIL-6 measured at 24 hr for human PBMC incubated with 1 ng/mL LPS and serial dilutions (1000-0.16 nM) of conjugated steroid linker payloads, with the no treatment control plotted on the log-scale x-axis at <0.16 nM; n=1, standard deviation plotted from technical duplicates. Values above the ULOQ (12,500 pg/mL for IL-1b and 150,000 pg/mL for IL-6) were plotted as the extrapolated value.
Average cytokine levels for IL-1β measured at 24 hr for human PBMC incubated with 1 ng/mL LPS and serial dilutions (1000-0.16 nM) of conjugated steroid linker payloads, with the no treatment control plotted on the log-scale x-axis at <0.16 nM; n=1, mean plotted of technical duplicates
Average cytokine levels for IL-1β measured at 24 hr for human PBMC incubated with 1 ng/mL LPS and serial dilutions (1000-0.16 nM) of conjugated steroid linker payloads, with the no treatment control plotted on the log-scale x-axis at <0.16 nM; n=1, mean plotted of technical duplicates.
FIG. 66: Analogs of INX V are potent relative to INX231J. […]

[1] = system: LPS stimulated human PBMCs; test: LPS stimulated human PBMC, IL-1β and IL-6 ELISA; format: cell-based; settings: for inhibition of IL-1β and IL-6: Experiment 12: free payloads 1000-0.15 nM
Protocol: The potency of novel steroids was assessed in a model of LPS stimulated human peripheral blood mononuclear cells (PBMCS). Stimulated PBMCs in this assay produce multiple pro-inflammatory cytokines1.
In all the following experiments, human PBMC, isolated from 1-2 healthy donors per study, were stimulated with LPS to induce cytokine production.
LPS was added either immediately after addition of free payload, or in the case of conjugates, four hours after addition of the conjugate.
Cells were plated in flat bottom 96 well plates at a final concentration of 150,000 cells/well, with technical duplicates for each condition.
Test agents were serially diluted in the assay media and added to a final concentration of 1,000 nM-1 nM or 0.2 nM depending on the assay or as a no treatment control.
LPS stimulation was added to a final concentration of 1 ng/ml.
Human IL-1β and IL-6 ELISA kits were used on supernatants according to vendor protocols. All graphs were prepared with GraphPad (Prism).

| Compound | inhibition of IL-1β production (human PBMC) | inhibition of IL-1β and IL-6 [1] | inhibition of IL-6 production (human PBMC) | inhibition of IL-1β production ([1]; Experiment 6: free payload 1000-0.16 nM, 24 hr) | inhibition of IL-1β and IL-6 production ([1]; Experiment 1: free payload 1000-1 nM, 1 ng/ml LPS, 24 hr, n=1 donor) | inhibition of IL-1β production ([1]; Experiment 2: free payload 1000-1 nM, 24 hr, n=1 donor) | inhibition of IL-1β production ([1]; Experiment 3: free payload 1000-0.2 nM, 24 hr, n=2 donors) |
| --- | --- | --- | --- | --- | --- | --- | --- |
| C[C@]12C=CC(=O)C=C1CC[C@@H]1[C@@H]2[C@@H](O)C[C@@]2(C)[C@H]1C[C@H]1CN(Cc3ccc(CC45CC(N)(C4)C5)cc3)C[C@]12C(=O)CO [INX-SM-17, (6aR,6bS,7S,8aS,8bS,11aR,12aS,12bS)-10-(4-((3-aminobicyclo[1.1.1]pentan-1-yl)methyl)benzyl)-7-hydroxy-8b-(2-hydroxyacetyl)-6a,8a-dimethyl-1,6a,6b,7,8,8a,8b,9,10,11,11a,12,12a,12b-tetradecahydronaphtho[2′,1′:4,5]indeno[1,2-c]pyrrol-4 (2H)-one 2,2,2-trifluoroacetate] | weakly inhibits | only weakly inhibit IL-1β | – | – | – | – | – |
| C[C@]12C=CC(=O)C=C1CC[C@@H]1[C@@H]2[C@@H](O)C[C@@]2(C)[C@H]1C[C@H]1CN(c3ccc(CC45CC(N)(C4)C5)cc3)C[C@]12C(=O)CO [INX-SM-34, (6aR,6bS,7S,8aS,8bS,11aR,12aS,12bS)-10-(4-((3-aminobicyclo[1.1.1]pentan-1-yl)methyl)phenyl)-7-hydroxy-8b-(2-hydroxyacetyl)-6a,8a-dimethyl-1,6a,6b,7,8,8a,8b,9,10,11,11a,12,12a,12b-tetradecahydronaphtho[2′,1′:4,5]indeno[1,2-c]pyrrol-4 (2H)-one 2,2,2-trifluoroacetate] | weakly inhibit | weakly inhibit IL-1β and IL-6 | weakly inhibit | – | – | – | – |
| C[C@]12C=CC(=O)C=C1CC[C@@H]1[C@@H]2[C@@H](O)C[C@@]2(C)[C@H]1C[C@H]1O[C@@H](c3ccc(Cc4ncc(N)s4)cc3)O[C@]12C(=O)CO [INX-SM-7, (6aR,6bS,7S,8aS,8bS,10R,11aR,12aS,12bS)-10-(4-((5-aminothiazol-2-yl)methyl)phenyl)-7-hydroxy-8b-(2-hydroxyacetyl)-6a,8a-dimethyl-1,2,6a,6b,7,8,8a,8b,11a,12,12a,12b-dodecahydro-4H-naphtho[2′,1′:4,5]indeno[1,2-d][1,3]dioxol-4-one] | inhibition | – | – | dose-dependent inhibition in IL-1β production | – | – | – |
| C[C@]12C=CC(=O)C=C1CC[C@@H]1[C@@H]2[C@@H](O)C[C@@]2(C)[C@H]1C[C@H]1O[C@@H](C34CC(Cc5cccc(N)c5)(C3)C4)O[C@]12C(=O)CO [INX-SM-4, (6aR,6bS,7S,8aS,8bS,10R,11aR,12aS,12bS)-10-(3-(3-aminobenzyl)bicyclo[1.1.1]pentan-1-yl)-7-hydroxy-8b-(2-hydroxyacetyl)-6a,8a-dimethyl-1,2,6a,6b,7,8,8a,8b,11a,12,12a,12b-dodecahydro-4H-naphtho[2′,1′:4,5]indeno[1,2-d][1,3]dioxol-4-one] | inhibit | – | inhibit | – | inhibit both IL-1β and IL-6 production | show inhibition in IL-1β production | – |
| C[C@]12C=CC(=O)C=C1CC[C@@H]1[C@@H]2[C@@H](O)C[C@@]2(C)[C@H]1C[C@H]1O[C@@H](c3ccc(CC4(N)CC(F)(F)C4)cc3)O[C@]12C(=O)CO [INX-SM-35, (6aR,6bS,7S,8aS,8bS,10R,11aR,12aS,12bS)-10-(4-((1-amino-3,3-difluorocyclobutyl)methyl)phenyl)-7-hydroxy-8b-(2-hydroxyacetyl)-6a,8a-dimethyl 1,2,6a,6b,7,8,8a,8b,11a,12,12a,12b-dodecahydro-4H-naphtho[2′,1′:4,5]indeno[1,2-d][1,3]dioxol-4-one] | inhibit | – | inhibit | – | – | – | dose dependent inhibition in IL-1β production |
